Our source for the inhibition values is ChEMBL document CHEMBL5390237, “Discovery of Selective Histone Deacetylase 1 and 2 Inhibitors: Screening of a Focused Library Constructed by Click Chemistry, Kinetic Binding Analysis, and Biological Evaluation” (J Med Chem, 2023).

Sequence of Histone deacetylase 2 (Q92769 whole entry): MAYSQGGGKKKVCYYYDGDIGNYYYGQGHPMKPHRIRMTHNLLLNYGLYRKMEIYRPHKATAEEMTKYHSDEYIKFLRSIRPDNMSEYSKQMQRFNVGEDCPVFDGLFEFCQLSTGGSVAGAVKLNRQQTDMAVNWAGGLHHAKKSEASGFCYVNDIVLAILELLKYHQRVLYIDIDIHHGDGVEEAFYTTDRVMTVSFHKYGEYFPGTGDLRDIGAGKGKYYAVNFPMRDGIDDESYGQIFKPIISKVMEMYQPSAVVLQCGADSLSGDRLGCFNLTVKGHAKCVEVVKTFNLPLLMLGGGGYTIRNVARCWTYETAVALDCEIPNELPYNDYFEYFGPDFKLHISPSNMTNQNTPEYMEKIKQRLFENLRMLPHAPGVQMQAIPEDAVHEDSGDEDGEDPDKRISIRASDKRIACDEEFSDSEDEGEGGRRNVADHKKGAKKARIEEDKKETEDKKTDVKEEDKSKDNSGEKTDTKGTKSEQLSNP

This test addresses Histone deacetylase 2 (Homo sapiens, UniProt Q92769). As to the kind of experiment: Inhibition of full-length recombinant human C-terminal GST tagged HDAC2 expressed in Sf9 insect cells using aminoluciferin peptide substrate at 100 nM preincubated for 3 hrs followed by substrate addition and measured after 30 mins by HDAC-Glo I/II chemiluminescence assay. The note with it: time 3.5 hrs.
One may read the inhibition as the drop in the measured response relative to a control, in per cent. On to `Nc1ccc(-c2ccsc2)cc1NC(=O)CCc1cn(CCC23CC4CC(CC(C4)C2)C3)nn1`, for which the inhibition is 0%. The value for `Nc1ccc(-c2cccs2)cc1NC(=O)CCc1cn(-c2cccc3ccccc23)nn1` was 0%; that for `Nc1ccc(-c2cccs2)cc1NC(=O)CCc1cn(CCc2cccc(C(F)(F)F)c2)nn1` was 3%; that for `Nc1ccc(-c2ccc(F)cc2)cc1NC(=O)CCc1cn(CC(=O)c2ccccc2)nn1` was 19%. For `Cc1ccc(CCn2cc(C(=O)Nc3cc(-c4cccs4)ccc3N)nn2)cc1` the value was 16%; for `COc1ccccc1CCn1cc(C(=O)Nc2cc(-c3ccccc3)ccc2N)nn1`, 0%; for `Nc1ccc(-c2cccs2)cc1NC(=O)c1ccc(-c2cn(Cc3ccc(Oc4ccccc4)cc3)nn2)s1`, 0%. The value for `Nc1ccc(-c2cccs2)cc1NC(=O)c1ccc(-c2cn(Cc3ccc(-c4ccccc4)cc3)nn2)cc1` was 0%. Take `Nc1ccc(-c2ccsc2)cc1NC(=O)CCc1cn(CS(=O)(=O)c2ccccc2)nn1`: the inhibition turned out to be 14%.

For `Nc1ccc(-c2cccs2)cc1NC(=O)CCc1cn(-c2ccccc2-c2ccccc2)nn1`, the inhibition was 0%. The value for `Nc1ccc(-c2ccc(F)cc2)cc1NC(=O)CCc1cn(-c2ccc([N+](=O)[O-])cc2)nn1` was 7%; that for `Nc1ccc(-c2cccs2)cc1NC(=O)c1ccc(-c2cn(-c3ccc(I)cc3)nn2)s1` was 0%; that for `CCc1ccc(Cn2cc(-c3ccc(C(=O)Nc4cc(-c5cccs5)ccc4N)cc3)nn2)cc1` was 0%. For `Cc1cccc(CCn2cc(C(=O)Nc3cc(-c4cccs4)ccc3N)nn2)c1` the value was 11%; for `Nc1ccc(-c2cccs2)cc1NC(=O)CCc1cn(CCc2ccccc2Cl)nn1`, 5%; for `COc1ccc(Cn2cc(C(=O)Nc3cc(-c4ccc(F)cc4)ccc3N)nn2)cc1`, 19%. For `Nc1ccc(-c2ccc(F)cc2)cc1NC(=O)CCc1cn(CCc2c[nH]c3ccccc23)nn1` the value was 30%; for `Cc1ccccc1CCn1cc(C(=O)Nc2cc(-c3ccccc3)ccc2N)nn1`, 0%; for `Nc1ccc(-c2ccccc2)cc1NC(=O)CCc1cn(CCc2ccc([N+](=O)[O-])cc2)nn1`, 13%. Consider `Nc1ccc(-c2cccs2)cc1NC(=O)c1cn(CCc2cccc(Cl)c2)nn1`, for which the inhibition was determined as 2%.

As for `Nc1ccc(-c2ccccc2)cc1NC(=O)CCc1cn(CCC2CCCC2)nn1`, the inhibition is 0%. For the molecule `Nc1ccc(-c2cccs2)cc1NC(=O)c1cccc(-c2cn(CCCCCCC(=O)O)nn2)c1`, the inhibition is 30%. The value for `Nc1ccc(-c2cccs2)cc1NC(=O)c1ccc(-c2cn(CCc3ccccc3[N+](=O)[O-])nn2)cc1` was 33%; that for `Nc1ccc(-c2ccc(F)cc2)cc1NC(=O)c1cn(-c2ccc(I)cc2)nn1` was 7%. The value for `Nc1ccc(-c2ccc(F)cc2)cc1NC(=O)CCc1cn(CCc2ccsc2)nn1` was 16%; that for `Nc1ccc(-c2ccccc2)cc1NC(=O)c1cn(CCc2cccc(C(F)(F)F)c2)nn1` was 0%; that for `Nc1ccc(-c2cccs2)cc1NC(=O)c1cn(CCc2ccsc2)nn1` was 0%.

`Nc1ccc(-c2cccs2)cc1NC(=O)c1cn(CCCCCCC(=O)O)nn1`: the inhibition is 7%. `Nc1ccc(-c2cccs2)cc1NC(=O)c1cn(-c2cccc3ccccc23)nn1`: the inhibition amounted to 0%. For the molecule `Nc1ccc(-c2ccsc2)cc1NC(=O)c1cn(C[S+]([O-])c2ccccc2)nn1` (stereo unspecified), the inhibition stood at 10%. For `Cc1csc(CCn2cc(CCC(=O)Nc3cc(-c4cccs4)ccc3N)nn2)n1` the value was 30%; for `Nc1ccc(-c2cccs2)cc1NC(=O)c1cn(CCN2CCOCC2)nn1`, 0%.

In the case of `Nc1ccc(-c2ccsc2)cc1NC(=O)CCc1cn(CCc2cccc([N+](=O)[O-])c2)nn1`, the inhibition stood at 36%. The value for `Nc1ccc(-c2cccs2)cc1NC(=O)c1ccc(-c2cn(CCCCCCC(=O)O)nn2)cc1` was 0%; that for `Nc1ccc(-c2cccs2)cc1NC(=O)c1cccc(-c2cn(CCCCC(=O)O)nn2)c1` was 48%. The value for `Nc1ccc(-n2cc(CCC(=O)Nc3cc(-c4cccnc4)ccc3N)nn2)cc1` was 5%; that for `Nc1ccc(-c2ccsc2)cc1NC(=O)CCc1cn(CCCCCC(=O)O)nn1` was 0%; that for `Nc1ccc(-c2cccs2)cc1NC(=O)c1ccc(-c2cn(-c3ccc([N+](=O)[O-])cc3)nn2)s1` was 7%. In the case of `Cc1cccc(C)c1NC(=O)Cn1cc(CCC(=O)Nc2cc(-c3cccs3)ccc2N)nn1`, the inhibition came to 19%.

Regarding `Nc1ccc(-c2ccc(F)cc2)cc1NC(=O)c1cn(CC2CCCCC2)nn1`, the inhibition came to 3%. For `COc1ccc(Cn2cc(CCC(=O)Nc3cc(-c4ccsc4)ccc3N)nn2)cc1` the value was 24%; for `Nc1ccc(-c2cccs2)cc1NC(=O)CCc1cn(CCc2ccccn2)nn1`, 7%; for `Nc1ccc(-c2cccs2)cc1NC(=O)c1cn(CCc2cccc(C(F)(F)F)c2)nn1`, 0%. Turning to `COc1ccccc1CCn1cc(C(=O)Nc2cc(-c3cccs3)ccc2N)nn1`, the inhibition turned out to be 6%. For `Nc1ccc(-c2cccs2)cc1NC(=O)c1ccc(-c2cn(Cc3ccc(OC(F)(F)F)cc3)nn2)cc1` the value was 5%; for `Nc1ccc(-n2cc(C(=O)Nc3cc(-c4ccccc4)ccc3N)nn2)cc1`, 11%; for `Nc1ccc(-c2ccc(F)cc2)cc1NC(=O)c1cn(-c2ccc(O)cc2)nn1`, 15%. For `Nc1ccc(-c2ccsc2)cc1NC(=O)CCc1cn(Cc2ccc(OC(F)(F)F)cc2)nn1`, the inhibition came out at 0%.

Take `Nc1ccc(-c2ccc(F)cc2)cc1NC(=O)c1cn(C[S+]([O-])c2ccccc2)nn1` (stereo unspecified): the inhibition was 0%. The value for `Nc1ccc(-c2ccccc2)cc1NC(=O)CCc1cn(-c2ccc(Br)cc2)nn1` was 0%; that for `Nc1ccc(-c2ccsc2)cc1NC(=O)CCc1cn(CCc2ccc([N+](=O)[O-])cc2)nn1` was 20%; that for `Nc1ccc(-c2ccc(F)cc2)cc1NC(=O)c1cn(Cc2ccc(Oc3ccccc3)cc2)nn1` was 5%. The value for `Cc1cccc(CCn2cc(-c3ccc(C(=O)Nc4cc(-c5cccs5)ccc4N)s3)nn2)c1` was 20%. The value for `Nc1ccc(-c2cccnc2)cc1NC(=O)CCc1cn(Cc2cc3ccccc3s2)nn1` was 9%; that for `Nc1ccc(-c2cccs2)cc1NC(=O)c1ccc(-c2cn(CCC3CCCC3)nn2)cc1` was 0%; that for `Nc1ccc(-c2cccnc2)cc1NC(=O)CCc1cn(CCN2CCc3ccccc3C2)nn1` was 5%.

Consider `Nc1ccc(-c2cccs2)cc1NC(=O)c1ccc(-c2cn(-c3ccc(Br)cc3)nn2)cc1`, for which the inhibition is 0%. For `Nc1ccc(-c2cccs2)cc1NC(=O)c1ccc(-c2cn(-c3ccc([N+](=O)[O-])cc3)nn2)cc1` the value was 4%; for `Nc1ccc(-c2ccc(F)cc2)cc1NC(=O)CCc1cn(CCCCCCCC(=O)O)nn1`, 15%; for `Nc1ccc(-c2cccs2)cc1NC(=O)CCc1cn(CCc2c[nH]c3ccccc23)nn1`, 18%. Take `Nc1ccc(-c2cccs2)cc1NC(=O)c1cccc(-c2cn(CC(=O)Nc3ccc(F)cc3)nn2)c1`: the inhibition was 0%.
